Data set [1] in a line: Distribution constant, log D of compound at pH 6.5. In kind it is physicochemical. To be noted: buffer.
The target of the next data set is Cytochrome P450 3A4 (Homo sapiens, UniProt P08684). The data set is described as follows: Competitive inhibition of CYP3A4 in human liver microsomes in presence of NADPH by LC-MS/MS analysis. In kind it is ADME.
Data set [2] is described as follows: AUC in cynomolgus monkey at 3 mg/kg, po. In kind it is ADME, organism-based, Macaca fascicularis. As to conditions: in vivo.
A short description of data set [3]: AUC in dog at 3 mg/kg, po. In kind it is ADME, organism-based, Canis lupus familiaris. As to conditions: in vivo.
A short description of data set [4]: Volume of distribution at steady state in cynomolgus monkey at 1 mg/kg, iv or 3 mg/kg, po. In kind it is ADME, organism-based, Macaca fascicularis. To be noted: in vivo, read-out: Vdss.
Data set [5] can be described thus: Clearance in dog at 1 mg/kg, iv or 3 mg/kg, po. In kind it is ADME, organism-based, Canis lupus familiaris. To be noted: in vivo.
The nature of data set [6]: Clearance in cynomolgus monkey at 1 mg/kg, iv or 3 mg/kg, po. In kind it is ADME, organism-based, Macaca fascicularis. As to conditions: in vivo.
A short description of data set [7]: Oral bioavailability in dog at 6 mg/kg. As to conditions: in vivo. In kind it is ADME, organism-based, Canis lupus familiaris.
Data set [8] is described as follows: AUC in rat at 6 mg/kg, po. In kind it is ADME, organism-based. As to conditions: in vivo.
Data set [9] can be described thus: Clearance in rat at 2 mg/kg, iv or 6 mg/kg, po. In kind it is ADME, organism-based. As to conditions: in vivo.
Data set [10] in a line: Oral bioavailability in cynomolgus monkey at […]. In kind it is ADME, organism-based, Macaca fascicularis. As to conditions: in vivo.
Data set [11] in a line: Volume of distribution at steady state in rat at 2 mg/kg, iv or 6 mg/kg, po. In kind it is ADME, organism-based. To be noted: in vivo, read-out: Vdss.
A short description of data set [12]: Oral bioavailability in rat at 6 mg/kg. In kind it is ADME, organism-based. To be noted: in vivo.
Data set [13] in a line: Volume of distribution at steady state in dog at 1 mg/kg, iv or 3 mg/kg, po. In kind it is ADME, organism-based, Canis lupus familiaris. To be noted: in vivo, read-out: Vdss.
Data set [14] has as its system Hepatitis C virus. The data set is described as follows: Antiviral activity against HCV genotype 1a infected in human HuH7 cells assessed as reduction in viral RNA replication after 3 days by Dual-Glo luciferase reporter gene assay. In kind it is functional, cell-based, Hepacivirus hominis. As to conditions: subtype 1a, Huh-7, 72 h.
Data set [15] deals with Hepatitis C virus. The data set is described as follows: Antiviral activity against HCV genotype 1a infected in human HuH7 cells assessed as reduction in viral RNA replication after 3 days in presence of human serum by Dual-Glo luciferase reporter gene assay. In kind it is functional, cell-based, Hepacivirus hominis. As to conditions: subtype 1a, Huh-7, 72 h. (In general: Reporter assays use an easily measured gene product as a stand-in for the process of interest.)

For orientation: logD means the decadic logarithm of the distribution of all forms, ionised or not, between an organic phase and buffer at a given pH. Usually IC50 stands for the concentration that gives 50% inhibition. A word on the AUC: it is concentration integrated over time. As a reminder, the bioavailability is dose-corrected exposure relative to a reference, in per cent. As usually defined, the EC50 is the midpoint of the concentration-response curve.

Sequence of Cytochrome P450 3A4 (P08684 whole entry): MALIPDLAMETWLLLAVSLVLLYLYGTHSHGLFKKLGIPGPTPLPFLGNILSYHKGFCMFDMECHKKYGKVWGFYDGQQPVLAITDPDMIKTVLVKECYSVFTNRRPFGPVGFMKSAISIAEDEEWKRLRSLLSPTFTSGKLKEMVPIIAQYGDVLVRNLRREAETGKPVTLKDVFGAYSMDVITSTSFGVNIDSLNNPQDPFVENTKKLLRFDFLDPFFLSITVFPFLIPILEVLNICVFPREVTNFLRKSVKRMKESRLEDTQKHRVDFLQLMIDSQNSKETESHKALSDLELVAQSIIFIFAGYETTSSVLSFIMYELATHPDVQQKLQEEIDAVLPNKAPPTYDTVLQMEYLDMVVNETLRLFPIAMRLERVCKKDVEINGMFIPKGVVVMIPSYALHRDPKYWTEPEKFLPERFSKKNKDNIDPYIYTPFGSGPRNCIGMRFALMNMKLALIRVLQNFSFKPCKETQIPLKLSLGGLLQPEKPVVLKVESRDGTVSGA

In the case of `CNC(=O)c1c(-c2ccc(F)cc2)oc2nc(CCC(F)(F)F)c(-c3cccc(C(=O)NC(C)(C)c4ncon4)c3)cc12`, the logD in [1] was found to be 4.43.

`CNC(=O)c1c(-c2ccc(F)cc2)oc2nc(CCC(F)(F)F)c(-c3cc(C(=O)NC(C)(C)c4ncon4)c(=O)n(C)c3)cc12`: the IC50 at Cytochrome P450 3A4 was found to be 440 nM.

For the compound `[2H]C([2H])([2H])Oc1ncc(-c2cc3c(C(=O)NC)c(-c4ccc(F)cc4)oc3nc2CCC(F)(F)F)cc1C(=O)NC(c1ncon1)(C([2H])([2H])[2H])C([2H])([2H])[2H]`, the values for the exposure (AUC) in data set [2], in data set [3] and in data set [8] were 16 µM·h, 125 µM·h and 95 µM·h, respectively. For the same compound, the Vd worked out at 2.3 L/kg in data set [4], 11 L/kg in data set [11] and 2.1 L/kg in [13]. Further, the clearance amounted to 1 mL/min/kg in data set [5], 4.7 mL/min/kg in [6] and 1.6 mL/min/kg in [9]. For the same compound, the logD in data set [1] came to 3.73. The bioavailability was 90% in [7], 85% in data set [10] and 100% in data set [12].

Take `[2H]C([2H])([2H])C(NC(=O)c1cccc(-c2cc3c(C(=O)NC)c(-c4ccc(F)cc4)oc3nc2CCC(F)(F)F)c1)(c1ncon1)C([2H])([2H])[2H]`: the concentration for a half-maximal effect (EC50) was determined as 13 nM in the data set with Hepatitis C virus [14] and 146 nM in the data set with Hepatitis C virus [15].

(Values after ChEMBL document CHEMBL4033773, “Improving Metabolic Stability with Deuterium: The Discovery of BMT-052, a Pan-genotypic HCV NS5B Polymerase Inhibitor” (ACS Med Chem Lett, 2017).)
